Results from US20200071310A1, “N-ARYL PYRAZOLES AS NRF2 REGULATORS” (GLAXOSMITHKLINE INTELLECTUAL PROPERTY DEVELOPMENT LIMITED, priority 2016, published 2020).

Tests used:
[1] = molecular target: T1, Keap1 (321-609) Kelch domain / TAMRA-labeled NRF2 peptide (ETGE motif) (Homo sapiens, UniProt Q14145); experiment: NRF2-Keap1 FP Assay; format: binding; conditions: Keap1 (321-609) 20 nM, Tamra labeled peptide 8 nM
T1 construct: the Kelch domain (321-609) of Keap1 is used
Source text: One model for the NRF2-Keap1 interaction is through two binding sites in the Neh2 domain on NRF2. The two sites are referred to as the DLG binding motif (latch domain, uM affinity) and the ETGE binding motif (hinge domain, nM affinity). The Keap1 protein consists of an N-terminal region (NTR), a broad complex, tramtrack, and brick a' brac domain (BTB), an intervening region (IVR), a double glycine repeat domain (DGR or Kelch), and a C-terminal region. The DLG and ETGE motifs of NRF2's Neh2 domain bind to the Kelch domain of Keap1 at different affinities. In the Keap1 Kelch fluorescence polarization (FP) assay, a TAMRA-labeled 16mer peptide (AFFAQLQLDEETGEFL) containing the ETGE motif of NRF2 and the Kelch domain (321-609) of Keap1 is used. The assay determines if a compound interferes with the binding between Keap1 […] and the TAMRA-labeled peptide. Binding of TAMRA-labeled NRF2 peptide to Keap1 (321-609) results in a high FP signal. If a compound interferes with the binding between the peptide and the protein, it will cause the assay signal to decrease. Thus, assay signal is inversely proportional to binding inhibition.
100 nl of 100× compound dose response curves (serial 3-fold dilutions) in DMSO were stamped using an Echo liquid handling system (Labcyte) into 384-well low volume black assay plates (Greiner, #784076), with DMSO in columns 6 and 18. The top concentration of compound was located in columns 1 and 13. Keap1 (321-609) was diluted to 40 nM (2×) in 1× assay buffer (50 mM Tris, pH 8.0, 100 mM NaCl, 5 mM MgCl2, 1 mM DTT, 2 mM CHAPS, and 0.005% BSA) and 5 ul was added using a Multidrop Combi (Thermo Electron Corporation) equipped with a metal tip dispenser to all wells of the compound plate, except column 18. Column 18 received only 5 ul of assay buffer. Immediately, 5 uL of 16 nM (2×) of Tamra labeled peptide (AFFAQLQLDEETGEFL, 21st Century Biochemicals) was added to all wells of the plate. The plates were spun at 500 rpm for 1 min, incubated for 1 hr at room temperature, and read on an Analyst GT (Molecular Devices) equipped with excitation (530/25 nm) and emission (580/10 nm) filters designed for Tamra probes. A 561 nm dichroic mirror was also used in the Analyst. The final assay concentrations of Keap1l (321-609) and Tamra labeled peptide were 20 nM and 8 nM, respectively. Fluorescence measurements, represented as mP, were used in the transformation of the data. Compound activity was calculated based on percent inhibition, normalized against controls in the assay (Control 1 contains the Tamra peptide and Keap1 (321-609) together (0% response) and control 2 contains the Tamra peptide alone (100% response)). Data analysis was handled using the software package Abase XE (Surrey, United Kingdom. The % inhibition values were calculated by the equation:
100−(100*((compound response−average control 2)/(average control 1−average control2))).
For calculation of pIC50s, Abase XE used a four parameter equation.
IC50s<1 nM (+++++), IC50s 1 nM-10 nM (++++), IC50s 10-100 nM (+++), IC50s 100 nM-1 μM (++), IC50s 1-10 μM (+), IC50s>10 μM (−), or were not determined (ND).

[2] = test system: NQO1 specific enzyme activity in BEAS-2B cells; experiment: BEAS-2B NQO1 MTT Assay; format: cell-based; conditions: Homo sapiens; NQO1 specific activity induction, BEAS-2B cells, 48 hours; read-out: EC50
Outline: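 BEAS-2B cells plated overnight, treated with compound for 48 h at 37° C, then lysed; NQO1 activity measured kinetically by MTT cocktail at 570 nm over 30 min, with lysate aliquot for Cell Titer Glo. pEC50 from 3-parameter fit of ΔOD/min versus log concentration.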

T1 sequence (Q14145 321-609): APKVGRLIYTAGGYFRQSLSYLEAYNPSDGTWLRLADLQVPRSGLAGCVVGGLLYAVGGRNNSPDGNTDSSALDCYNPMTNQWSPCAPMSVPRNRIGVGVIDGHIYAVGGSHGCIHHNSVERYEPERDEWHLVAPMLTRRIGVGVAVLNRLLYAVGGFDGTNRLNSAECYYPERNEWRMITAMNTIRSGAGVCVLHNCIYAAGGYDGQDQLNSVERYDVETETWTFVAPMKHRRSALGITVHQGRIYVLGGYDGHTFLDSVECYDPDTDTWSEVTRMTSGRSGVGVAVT

Row | EC50 [1] [nM] | Compound | EC50 [2] [nM]
1 | 10 to 100 | CN(Cc1cccc(-n2ncc(C(=O)O)c2[C@@H]2C[C@H]2c2cn(C)nn2)c1)S(=O)(=O)c1ccccc1Oc1ccccc1 (relative stereo) [Example 38, 5-((trans)-2-(1-methyl-1H-1,2,3-triazol-4-yl)cyclo-propyl)-1-(3-((N-methyl-2-phenoxyphenyl-sulfonamido)-methyl)phenyl)-1H-pyrazole-4-carboxylic acid] | 1000 to 10000
2 | 10 to 100 | CN(Cc1cccc(-n2ncc(C(=O)O)c2[C@@H]2C[C@H]2c2cn(C)nn2)c1)S(=O)(=O)c1ccc(-c2ccccc2)cc1 (relative stereo) [Example 39, 5-((trans)-2-(1-methyl-1H-1,2,3-triazol-4-yl)cyclo-propyl)-1-(3-((N-methyl-[1,1′-biphenyl]-4-ylsulfonamido)-methyl)phenyl)-1H-pyrazole-4-carboxylic acid] | 1000 to 10000
3 | 10 to 100 | C[C@H]1Cc2ccc(C(F)(F)F)cc2S(=O)(=O)N([C@H]2CCc3c2cccc3-n2ncc(C(=O)O)c2[C@@H]2C[C@H]2c2cn(C)nn2)C1 [Example 26a, 1-((S)-1-((S)-4-Methyl-1,1-dioxido-8-(trifluoromethyl)-4,5-dihydrobenzo[f][1,2]thiazepin-2(3H)-yl)-2,3-dihydro-1H-inden-4-yl)-5-((1R,2R)-2-(1-methyl-1H-1,2,3-triazol-4-yl)cyclopropyl)-1H-pyrazole-4-carboxylic acid] | 100 to 1000
4 | 1000 to 10000 | COc1ccccc1S(=O)(=O)N(C)C1CCc2ccc(-n3ncc(C(=O)O)c3[C@@H]3C[C@H]3c3cn(C)nn3)cc21 (stereo partly drawn) [Example 27, 1-(3-(2-methoxy-N-methylphenylsulfonamido)-2,3-dihydro-1H-inden-5-yl)-5-((1R,2R)-2-(1-methyl-1H-1,2,3-triazol-4-yl)cyclopropyl)-1H-pyrazole-4-carboxylic acid] | 100 to 1000
5 | 100 to 1000 | CC[C@@H]1CN(Cc2cc(-n3ncc(C(=O)O)c3[C@@H]3C[C@H]3c3cn(C)nn3)ccc2C)Cc2ccccc2O1 [Example 28] | 100 to 1000
6 | 1 to 10 | CC[C@@H]1CN(Cc2cccc(-n3ncc(C(=O)O)c3[C@@H]3C[C@H]3c3cn(CC(F)(F)F)nn3)c2)S(=O)(=O)c2ccccc2O1 [Example 29] | 100 to 1000
7 | 10 to 100 | C[C@H]1Cc2cc(C(F)(F)F)ccc2S(=O)(=O)N(Cc2cccc(-n3ncc(C(=O)O)c3[C@@H]3C[C@H]3c3cnn(C)c3)c2)C1 [Example 30, 1-(3-(((S)-4-Methyl-1,1-dioxido-7-(trifluoromethyl)-4,5-dihydrobenzo[f][1,2]thiazepin-2(3H)-yl)methyl)phenyl)-5-(trans-2-(1-methyl-1H-pyrazol-4-yl)cyclopropyl)-1H-pyrazole-4-carboxylic acid] | 1000 to 10000
8 | 100 to 1000 | CC[C@@H]1CN(Cc2cccc(-n3ncc(C(=O)O)c3[C@@H]3C[C@H]3c3cnn(C)c3)c2)S(=O)(=O)c2ccccc2O1 [Example 31, 1-(3-(((R)-4-ethyl-1,1-dioxido-3,4-dihydro-2H-benzo[b][1,4,5]oxathiazepin-2-yl)methyl)-phenyl)-5-(trans-2-(1-methyl-1H-pyrazol-4-yl)cyclopropyl)-1H-pyrazole-4-carboxylic acid] | 1000 to 10000
9 | 100 to 1000 | C[C@H]1Cc2ccccc2S(=O)(=O)N(Cc2cccc(-n3ncc(C(=O)O)c3[C@@H]3C[C@H]3c3cnn(C)c3)c2)C1 [Example 32, 1-(3-(((S)-4-methyl-1,1-dioxido-4,5-dihydrobenzo[f][1,2]thiazepin-2(3H)-yl)methyl)-phenyl)-5-(trans-2-(1-methyl-1H-pyrazol-4-yl)cyclopropyl)-1H-pyrazole-4-carboxylic acid] | 1000 to 10000

Second part, the compound before the results:

Row | Compound | EC50 [1] [nM] | EC50 [2] [nM]
10 | CC(c1cccc(-n2ncc(C(=O)O)c2[C@@H]2C[C@H]2c2cn(C)nn2)c1)N1C[C@@H](C)Cc2ccc(C(F)(F)F)cc2S1(=O)=O (single isomer, unassigned) [Example 6, 1-(3-((R or S)-1-((S)-4-Methyl-1,1-dioxido-8-(trifluoromethyl)-4,5-dihydrobenzo[f][1,2]thiazepin-2(3H)-yl)ethyl)phenyl)-5-((1R,2R)-2-(1-methyl-1H-1,2,3-triazol-4-yl)cyclopropyl)-1H-pyrazole-4-carboxylic acid] | 1 to 10 | 100 to 1000
11 | CC[C@@H]1CN(Cc2cccc(-n3ncc(C(=O)O)c3[C@@H]3C[C@H]3c3cn(C)nn3)c2)S(=O)(=O)c2ccccc2O1 [Example 3] | 1 to 10 | 100 to 1000
12 | CC[C@H]1Cc2ccccc2S(=O)(=O)N(Cc2cccc(-n3ncc(C(=O)O)c3[C@@H]3C[C@H]3c3cn(C)nn3)c2)C1 [Example 4] | 1 to 10 | 100 to 1000
13 | CC[C@@H]1Cc2ccccc2CN(Cc2cccc(-n3ncc(C(=O)O)c3[C@@H]3C[C@H]3c3cn(C)nn3)c2)C1 [Example 10] | 10 to 100 | 1000 to 10000
14 | CC[C@H]1Cc2ccccc2CN(Cc2cccc(-n3ncc(C(=O)O)c3[C@@H]3C[C@H]3c3cn(C)nn3)c2)C1 [Example 11] | 10 to 100 | 1000 to 10000
15 | CCC1c2ccccc2OC(C)(C)CN1Cc1cccc(-n2ncc(C(=O)O)c2[C@@H]2C[C@H]2c2cn(C)nn2)c1 (stereo partly shown) [Example 12] | 1000 to 10000 | 1000 to 10000
16 | C[C@H]1Cc2ccccc2S(=O)(=O)N(Cc2cccc(-n3ncc(C(=O)O)c3[C@@H]3C[C@H]3c3cn(C)nn3)c2)C1 [Example 15, 1-(3-(((S)-4-methyl-1,1-dioxido-4,5-dihydrobenzo[f][1,2]thiazepin-2(3H)-yl)methyl)phenyl)-5-((trans)-2-(1-methyl-1H-1,2,3-triazol-4-yl)cyclopropyl)-1H-pyrazole-4-carboxylic acid] | 10 to 100 | 1000 to 10000
17 | CC[C@H]1Cc2ccc(C(F)(F)F)cc2S(=O)(=O)N(Cc2cccc(-n3ncc(C(=O)O)c3[C@@H]3C[C@H]3c3cn(C)nn3)c2)C1 [Example 20, 1-(3-(((S)-4-ethyl-1,1-dioxido-8-(trifluoromethyl)-4,5-dihydrobenzo[f][1,2]thiazepin-2(3H)-yl)methyl)phenyl)-5-((1R,2R)-2-(1-methyl-1H-1,2,3-triazol-4-yl)cyclopropyl)-1H-pyrazole-4-carboxylic acid] | < 1 | 1 to 10
18 | CCCC[C@H]1Cc2ccc(C(F)(F)F)cc2S(=O)(=O)N(Cc2cccc(-n3ncc(C(=O)O)c3[C@@H]3C[C@H]3c3cn(C)nn3)c2)C1 [Example 21, 1-(3-(((S)-4-butyl-1,1-dioxido-8-(trifluoromethyl)-4,5-dihydrobenzo[f][1,2]thiazepin-2(3H)-yl)methyl)phenyl)-5-((1R,2R)-2-(1-methyl-1H-1,2,3-triazol-4-yl)cyclopropyl)-1H-pyrazole-4-carboxylic acid] | < 1 | < 1
19 | CC[C@H]1Cc2ccc(Br)cc2S(=O)(=O)N(Cc2cccc(-n3ncc(C(=O)O)c3[C@@H]3C[C@H]3c3cn(C)nn3)c2)C1 [Example 22, 1-(3-(((S)-8-bromo-4-ethyl-1,1-dioxido-4,5-dihydrobenzo[f][1,2]thiazepin-2(3H)-yl)methyl)phenyl)-5-((1R,2R)-2-(1-methyl-1H-1,2,3-triazol-4-yl)cyclopropyl)-1H-pyrazole-4-carboxylic acid] | < 1 | 1 to 10
20 | CC[C@@H]1CN(Cc2cc(-n3ncc(C(=O)O)c3C3C[C@H]3c3cn(C)nn3)ccc2C)S(=O)(=O)c2ccccc2O1 (stereo partly shown) [Example 25] | 1 to 10 | 1000 to 10000
